Test results taken from patent US12077503B2, “Substituted cyclic amides and their use as herbicides” (FMC CORPORATION, priority 2015, dated 2024).

Key:
Format in all cases: in vivo
[1] = tested on: ryegrass, Italian (Italian ryegrass, Lolium multiflorum); test: Test A preemergence; conditions: Preemergence; for Plant response rating, Ryegrass, Italian: 125 g ai/ha, visual injury after approximately 10 d, 0 to 100 scale where 0 is no effect and 100 is complete control; for Ryegrass, Italian plant response rating (0 to 100 scale, 0 is no effect, 100 is complete control): 500 g ai/ha, visual injury approx. 10 d
Text: (§1) Seeds of plant species selected from barnyardgrass (Echinochloa crus-galli), Kochia (Kochia scoparia), ragweed (common ragweed, Ambrosia elatior), ryegrass, Italian (Italian ryegrass, Lolium multiflorum), crabgrass, large (Digitaria sanguinalis), giant foxtail (Setaria faberii), green foxtail (Setaria viridis), morningglory (Ipomoea spp.), pigweed (Amaranthus retroflexus), velvetleaf (Abutilon theophrasti), wheat (Triticum aestivum), and corn (Zea mays) were planted into a blend of loam soil and sand and treated preemergence with a directed soil spray using test chemicals formulated in anon-phytotoxic solvent mixture which included a surfactant.
(§2) At the same time, plants selected from these crop and weed species and also blackgrass (Alopecurus myosuroides), and Galium (catchweed bedstraw, Galium aparine) were planted in pots containing the same blend of loam soil and sand and treated with postemergence applications of test chemicals formulated in the same manner. Plants ranged in height from 2 to 10 cm and were in the one- to two-leaf stage for the postemergence treatment. Treated plants and untreated controls were maintained in a greenhouse for approximately 10 d, after which time all treated plants were compared to untreated controls and visually evaluated for injury. Plant response ratings, summarized in Table A, are based on a 0 to 100 scale where 0 is no effect and 100 is complete control. A dash (-) response means no test result.

[2] = tested on: ragweed (common ragweed, Ambrosia elatior); test: Test A preemergence; conditions: Preemergence; for Plant response rating, Ragweed: 125 g ai/ha, visual injury after approximately 10 d, 0 to 100 scale where 0 is no effect and 100 is complete control; for Ragweed plant response rating (0 to 100 scale, 0 is no effect, 100 is complete control): 500 g ai/ha, visual injury approx. 10 d
Text: as §1, §2

[3] = tested on: barnyardgrass (Echinochloa crus-galli); test: Test A preemergence; conditions: Preemergence; for Plant response rating, Barnyardgrass: 125 g ai/ha, visual injury after approximately 10 d, 0 to 100 scale where 0 is no effect and 100 is complete control; for Barnyardgrass plant response rating (0 to 100 scale, 0 is no effect, 100 is complete control): 500 g ai/ha, visual injury approx. 10 d
Text: as §1, §2

[4] = tested on: giant foxtail (Setaria faberii); test: Test A preemergence; conditions: Preemergence; for Plant response rating, Foxtail, Giant: 125 g ai/ha, visual injury after approximately 10 d, 0 to 100 scale where 0 is no effect and 100 is complete control; for Foxtail, Giant plant response rating (0 to 100 scale, 0 is no effect, 100 is complete control): 500 g ai/ha, visual injury approx. 10 d
Text: as §1, §2

Kochia (Kochia scoparia) [5] = test: Test A preemergence; conditions: Preemergence; for Plant response rating, Kochia: 125 g ai/ha, visual injury after approximately 10 d, 0 to 100 scale where 0 is no effect and 100 is complete control; for Kochia plant response rating (0 to 100 scale, 0 is no effect, 100 is complete control): 500 g ai/ha, visual injury approx. 10 d
Text: as §1, §2

[6] = tested on: pigweed (Amaranthus retroflexus); test: Test A preemergence; conditions: Preemergence; for Plant response rating, Pigweed: 125 g ai/ha, visual injury after approximately 10 d, 0 to 100 scale where 0 is no effect and 100 is complete control; for Pigweed plant response rating (0 to 100 scale, 0 is no effect, 100 is complete control): 500 g ai/ha, visual injury approx. 10 d
Text: as §1, §2

[7] = tested on: ryegrass, Italian (Italian ryegrass, Lolium multiflorum); test: Test A postemergence
Text: as §1, §2

[8] = tested on: ragweed (common ragweed, Ambrosia elatior); test: Test A postemergence
Text: as §1, §2

[9] = tested on: barnyardgrass (Echinochloa crus-galli); test: Test A postemergence
Text: as §1, §2

corn (Zea mays) = test: Test A postemergence
Text: as §1, §2

[10] = tested on: Galium (catchweed bedstraw, Galium aparine); test: Test A postemergence
Text: as §1, §2

[11] = tested on: giant foxtail (Setaria faberii); test: Test A postemergence
Text: as §1, §2

Kochia (Kochia scoparia) [12] = test: Test A postemergence
Text: as §1, §2

[13] = tested on: blackgrass (Alopecurus myosuroides); test: Test A postemergence
Text: as §1, §2

[14] = tested on: pigweed (Amaranthus retroflexus); test: Test A postemergence
Text: as §1, §2

[15] = tested on: wheat (Triticum aestivum); test: Test A postemergence
Text: as §1, §2

[16] = 125 g ai/ha, postemergence, visual rating after approx. 10 d, 0 to 100 scale (0 no effect, 100 complete control)
[17] = Postemergence, 500 g ai/ha, 0 to 100 scale where 0 is no effect and 100 is complete control
[18] = 125 g ai/ha, postemergence, visual injury rating on 0 to 100 scale (0 no effect, 100 complete control), approx. 10 d

| Structure (SMILES) | Plant response rating, Ryegrass, Italian [1] | Ryegrass, Italian plant response rating (0 to 100 scale, 0 is no effect, 100 is complete control) [1] | Plant response rating, Ragweed [2] | Ragweed plant response rating (0 to 100 scale, 0 is no effect, 100 is complete control) [2] | Plant response rating, Barnyardgrass [3] | Barnyardgrass plant response rating (0 to 100 scale, 0 is no effect, 100 is complete control) [3] | Plant response rating, Foxtail, Giant [4] | Foxtail, Giant plant response rating (0 to 100 scale, 0 is no effect, 100 is complete control) [4] | Plant response rating, Kochia (Kochia (Kochia scoparia) [5]) | Kochia plant response rating (0 to 100 scale, 0 is no effect, 100 is complete control) (Kochia (Kochia scoparia) [5]) | Plant response rating, Pigweed [6] | Pigweed plant response rating (0 to 100 scale, 0 is no effect, 100 is complete control) [6] | Plant response rating, Ryegrass, Italian [7, 16] | Plant response rating, Ryegrass, Italian [7, 17] | Plant response rating, Ragweed [8, 16] | Plant response rating, Ragweed [8, 17] | Plant response rating, Barnyardgrass [9, 17] | Plant response rating, Corn (corn (Zea mays); [16]) | Plant response rating, Corn (corn (Zea mays); [17]) | Plant response rating, Galium [10, 16] | other results |
| --- | --- | --- | --- | --- | --- | --- | --- | --- | --- | --- | --- | --- | --- | --- | --- | --- | --- | --- | --- | --- | --- |
| O=C(Nc1cccc(F)c1F)C1C(=O)N(C2C=CCCC2)CC1c1cccc(C(F)(F)F)c1 (stereo not drawn) [Compound 525] | 0 | 0 | 0 | 0 | 30 | 50 | 30 | 70 | 0 | 0 | 0 | 0 | 0 | 0 | 0 | 0 | 40 | 0 | 0 | 0 | Barnyardgrass plant response rating [9, 18]: 40; Plant response rating, Galium [10, 17]: 0; Plant response rating, Foxtail, Giant [11, 16]: 20; Plant response rating, Foxtail, Giant [11, 17]: 60; Plant response rating, Kochia (Kochia (Kochia scoparia) [12]; [16]): 0; Plant response rating, Kochia (Kochia (Kochia scoparia) [12]; [17]): 0; Blackgrass plant response rating [13, 18]: 0; Plant response rating, Blackgrass [13, 17]: 30; Plant response rating, Pigweed [14, 16]: 0; Plant response rating, Pigweed [14, 17]: 0; Plant response rating, Wheat [15, 16]: 0; Plant response rating, Wheat [15, 17]: 0 |
| CCc1cccc(C2CN(C)C(=O)C2C(=O)Nc2ccccc2S(C)(=O)=O)c1 (stereo not drawn) [Compound 569] | 30 | 70 | 60 | 70 | 90 | 100 | 100 | 100 | 60 | 90 | 50 | 80 | 40 | 60 | 30 | 60 | 90 | 20 | 60 | 40 | Plant response rating, Barnyardgrass [9, 16]: 90; Plant response rating, Galium [10, 17]: 60; Plant response rating, Foxtail, Giant [11, 16]: 90; Plant response rating, Foxtail, Giant [11, 17]: 90; Plant response rating, Kochia (Kochia (Kochia scoparia) [12]; [16]): 20; Plant response rating, Kochia (Kochia (Kochia scoparia) [12]; [17]): 50; Plant response rating, Blackgrass [13, 16]: 60; Plant response rating, Blackgrass [13, 17]: 80; Plant response rating, Pigweed [14, 16]: 0; Plant response rating, Pigweed [14, 17]: 50; Plant response rating, Wheat [15, 16]: 30; Plant response rating, Wheat [15, 17]: 70 |
| CN1CC(c2ccc(OC(F)F)cc2)C(C(=O)Nc2cccc(F)c2F)C1=O (stereo not drawn) [Compound 562] | 60 | 90 | 70 | 80 | 90 | 90 | 90 | 90 | 70 | 90 | 90 | 90 | 70 | 80 | 50 | 60 | 90 | 40 | 80 | 60 | Plant response rating, Barnyardgrass [9, 16]: 90; Plant response rating, Galium [10, 17]: 70; Plant response rating, Foxtail, Giant [11, 16]: 90; Plant response rating, Foxtail, Giant [11, 17]: 90; Plant response rating, Kochia (Kochia (Kochia scoparia) [12]; [16]): 70; Plant response rating, Kochia (Kochia (Kochia scoparia) [12]; [17]): 80; Plant response rating, Blackgrass [13, 16]: 60; Plant response rating, Blackgrass [13, 17]: 70; Plant response rating, Pigweed [14, 16]: 70; Plant response rating, Pigweed [14, 17]: 80; Plant response rating, Wheat [15, 16]: 50; Plant response rating, Wheat [15, 17]: 80 |
